Reference: patent US20230332103A1, “Methods and Compositions for Generating Human Forebrain Neural Progenitor Cells and for Maturation Thereof to Parvalbumin+ Interneurons” (Trailhead Biosystems Inc., priority 2021, published 2023)

Experiments:
[1] = system: human pluripotent stem cells; assay: additional HD-DoE experiment for stage 1 (forebrain differentiation from pluripotency), optimized for FEZF2; type: cell-based; conditions: for impact on expression of FEZF2: dynamic profile, FIG. 6; for factor contribution on expression of FEZF2: positive impact, additional stage 1 experiment optimized for FEZF2, FIG. 5
Method: To identify the recipe for stage 1 of differentiation, 96 different combinations of effectors generated using Design-of-Experiments compression through D-optimality were robotically prepared. The effector combinations were prepared in a basal media and were subsequently added to the cells, which were then allowed to differentiate. Three days later RNA extraction was performed, and gene expression was obtained using quantitative PCR analysis. The data were normalized and modeled using partial least squares regression analysis to the effector design, resulting in the generation of gene-specific models, which after model tuning for maximal Q2 predictive power, provided explanation of the effectors ability to control the expression of individual genes, combinatorially, and individually. Solutions within the tested space could then be explored to address desirability.
To further enhance the conditions for forebrain differentiation from pluripotency, an additional HD-DoE experiment was performed. Additional gene regulatory models were obtained that were used for preparation of the differentiation protocol. The factors in this experiment included LDN193189, PD173074, BLU9931, Purmorphamine, SC79, MK2206, ZM336372, PD0325901, CHIR99021, XAV939, UCLA-GP130, Tofacitinib and GO6983. […] Dynamic profile analysis was also used to assess the interaction between the effectors.

[2] = system: human pluripotent stem cells; assay: HD-DoE 12-factor experiment for stage 1 recipe, gene expression by quantitative PCR after 3 days; type: cell-based; conditions: for factor contribution on expression of SIX3: model optimized for maximal expression of SIX3, 3-day treatment; for factor contribution on expression of FEZF2: model optimized for maximum expression of FEZF2
Source text: This example utilizes a method of High-Dimensional Design of Experiments (HD-DoE), as previously described in Bukys et al. (2020) […] 23:101346. The method employs computerized design geometries to simultaneously test multiple process inputs and offers mathematical modeling of a deep effector/response space. The method allows for finding combinatorial signaling inputs that control a complex process, such as during cell differentiation. It allows testing of multiple plausible critical process parameters, as such parameters impact output responses, such as gene expression. Because gene expression provides hallmark features of the phenotype of, for example, a human cell, the method can be applied to identify, and understand, which signaling pathways control cell fate. In the current example, the HD-DOE method was applied with the intent to find conditions for induction of […] neural progenitor-expressed genes, directly from the pluripotent stem cell state. To develop the recipe for each stage, the impact of agonists and antagonists of multiple signaling pathways (herein called effectors) on the expression of two sets of 53 pre-selected genes, after a 3-day treatment, has been tested and modeled. These effectors are small molecules or proteins that are commonly used during stepwise differentiation of stem cells to specific fates. Choice of the effectors were based on current literature on neural induction in forebrain region of developing brain and differentiation of stem cells to neural progenitors. To test the effectors, experiments with at least 8 factors were designed that can assess the response of cells to 48 or more different combinations of effectors in a range of concentrations. To analyze the models, we focused on expression of genes involved in development and patterning of the anterior neuroectoderm and forebrain including OTX2 (Hoch et al. (2015) Cell Reports 12:482-494), SIX3 (Lagutin et al. (2003) Genes & Development 17:368-379) and FEZF2 (Zhang et al. (2014) Development 141:4794-[…]). At later stages we focused on dorsoventral patterning of telencephalon and gene expressed in ventral forebrain including NKX2-1 and absence of PAX6 which is a dorsal forebrain marker (Stoykova et al. (2000) J. Neurosci. 20:8042-8050). The impact of each effector on gene expression level is defined by a parameter called factor contribution that is calculated for each effector during the modeling. To identify the recipe for stage 1 of differentiation, 96 different combinations of effectors generated using Design-of-Experiments compression through D-optimality were robotically prepared. The effector combinations were prepared in a basal media and were subsequently added to the cells, which were then allowed to differentiate. Three days later RNA extraction was performed, and gene expression was obtained using quantitative PCR analysis. […] Solutions within the tested space could then be explored to address desirability. Optimizing for maximal expression of SIX3 at 3300 and FEZF2 1355 expression values led to robust solutions. This model was derived from testing 12 effectors including AGN193109, LDN193189, CHIR99021, XAV939, IGF2, Purmorphamine, 4-oxo-RA, TTNPB, SR11237, FGF8, PD0325901 and […]. […] The model was also optimized for maximum expression of FEZF2 separately at 3576 expression value to find any additional factors that can boost expression of forebrain genes. […] To find the set of factors that have the potential to optimize all 3 genes in this experiment, a new assessment was done through dynamic profile analysis with focus on maximal expression of OTX2, FEZF2 and SIX3.

[3] = system: forebrain-committed neural stem cells (stage 1 neural stem cells); assay: factor criticality analysis (dynamic profile analysis) of stage 2 recipe; type: cell-based, human
Method: (§1) To assess the impact of the elimination of each validated factor, dynamic profile analysis was used and compared the expression level of genes of interest in absence of each finalized factor while others are present.
In the stage 2 recipe, each of the four finalized factors were removed while the other three factors remained present and expression levels of NKX2-1, PAX6 and NKX2-2 were assessed compared to presence of all four factors. The results are summarized in FIG. 13A-B. Absence of PD0325901 reduced the levels of NKX2-1 and NKX2-2 while increasing PAX6 from 5000 to 3200, 100 to 0 and 0 to 5000, respectively. […] Removing XAV939 reduced the levels of NKX2-1 from 5000 to 3000, while increasing both PAX6 and NKX2-2 to 10000 and 200, respectively. Another observation was the interaction between XAV939 and Purmorphamine. In the absence of XAV939, the impact of Purmorphamine on NKX2-1 became negative and, as it is shown in interaction plot of FIG. 14, the level of NKX2-1 is higher when both factors are present.

[4] = system: human pluripotent stem cells; assay: factor criticality analysis (dynamic profile analysis) of stage 1 recipe; type: cell-based; parameters: unit not given here; conditions: other five factors present; for expression level of FEZF2 when the effector is removed: 2000 with all six factors; for expression level of SIX3 when the effector is removed: 3000 with all six factors; for expression level of OTX2 when the effector is removed: 5500 with all six factors
Method: as §1
In the stage 1 recipe, each of the six finalized factors were removed individually while the other five factors were present and expression levels of forebrain genes was assessed compared to the presence of all six factors together. The results are summarized in FIG. 11A-B. When LDN193189 was removed, expression levels of FEZF2, OTX2 and SIX3 were decreased drastically from 2000 to 1000, 5500 to 4000 and 3000 to 0, respectively. […] When Purmorphamine was removed, levels of FEZF2 and SIX3 were decreased to 1000 and below 3000, while levels of OTX2 increased to 6500.

[5] = dynamic profile analysis, FIG. 4

Compound	impact on expression of FEZF2 [1]	factor contribution on expression of FEZF2 [1]	factor contribution, important input for high expression of SIX3 ([2]; FIG. 2 legend, model optimized for maximum expression of SIX3 as printed)	impact on expression of OTX2 [2, 5]	factor contribution on expression of OTX2 ([2]; positive impact, model of maximum expression of OTX2)	factor contribution on expression of SIX3 ([2]; positive impact)	factor contribution on expression of FEZF2 ([2]; positive impact)	expression level of PAX6 in the absence of the effector ([3]; stage 2 recipe, other three factors present, 0 with all four factors)	expression level of NKX2-2 in the absence of the effector ([3]; stage 2 recipe, other three factors present, 100 with all four factors)	expression level of NKX2-1 in the absence of the effector ([3]; stage 2 recipe, other three factors present, 5000 with all four factors)	expression level of FEZF2 when the effector is removed [4]	expression level of SIX3 when the effector is removed [4]	expression level of OTX2 when the effector is removed [4]	impact on expression of FEZF2 [2, 5]	impact on expression of SIX3 [2, 5]	impact on NKX2-1 in the absence of XAV939 ([3]; interaction between XAV939 and Purmorphamine, FIG. 14)
c1ccc2c(-c3cnn4cc(-c5ccc(N6CCNCC6)cc5)cnc34)ccnc2c1 [LDN193189]	positive impact	18	24.9	positive impact	8	16	25	below 0	below 0	did not significantly change	1000	0	4000	–	–	–
c1ccc2c(Oc3nc(Nc4ccc(N5CCOCC5)cc4)c4ncn(C5CCCCC5)c4n3)cccc2c1 [Purmorphamine]	positive impact	11	–	negative effect	–	5	7	–	–	–	1000	below 3000	6500	positive impact	positive impact	negative
